Source: US20160207893A1, “NOVEL CALCIUM MODULATORS” (Myotherix, Inc., priority 2014, published 2016)

How the values were obtained:
[1] = tested on: iCell Cardiomyocytes (hIPS cardiomyocytes); assay: Calcium transient dynamics in cardiomyocytes derived from human stem cells by Kinetic Image Cytometry; type: cell-based
From the text: CTD25: Approximates the time elapsed during the first 25% of the transient duration. The measurement assesses the time elapsed from the 75% point of upstroke to the 75% point on the downstroke relative to the peak. Full Width Half Maximum (FWHM): The time elapsed from the 50% point of the upstroke to the 50% point of the down stroke. CTD75: Approximates the time elapsed for 75% of the transient duration. The measurement assesses the time elapsed from the 25% point of upstroke to the 25% point on the down stroke relative to the peak. CTD90: Approximates the time elapsed for 90% of the transient duration. The measurement assesses the time elapsed from the 10% point of upstroke to the 10% point on the down stroke relative to the peak. Decay Time: The time elapsed from the peak to the 50% point of the down stroke T75-25: The time elapsed from the 75% point of the transient maximum to the 25% point of the transient maximum on the down stroke. Beat Rate is assessed by measuring the number of transients observed during the recording period and extrapolating out to the number of expected beats per minute.
Analysis of Test Compounds on Calcium Transient Dynamics in Cardiomyocytes Derived from Human Stem Cells by Kinetic Image Cytometry
Cryopreserved cells (Cellular Dynamics International) were plated onto 96 well tissue culture plates previously coated with Matrigel (250 μg/ml) at a density of 25,000 cells per well, and maintained for two days in plating medium at 37° C. and 7% CO2. After two days in culture, the plating media was replaced with maintenance media and the cells were kept at 37° C. and 7% CO2 with the maintenance media replaced every other day. The cardiomyocytes were maintained in culture for 10 days prior to their use in the assay.
Prior to treatment with the test compounds, the cardiomyocytes were loaded using Fluo-4NW, Hoechst 33342 (200 ng/ml), and 2.5 mM probenecid in the supplied Fluo-4NW assay buffer. Cells were loaded for 1 hour at 37° C.
Test compounds were diluted to their final concentration in Tyrode's solution and brought to 37° C. In addition to standard 2 mM CaCl2 Tyrode's solution, elevated calcium variations using 4 mM and 6 mM CaCl2 were examined in separate test sets.
The hIPS Cardiomyocytes were also prepared for testing with 1 Hz electrical stimulation in standard 2 mM CaCl2 Tyrodes, and test compounds were prepared as described above. […]
Vala Sciences' Kinetic Image Cytometer (KIC™) was used to capture movies of the intracellular calcium transients. The environmental control chamber of the KIC was set to 37° C. and the KIC was fitted with a 20× objective and captured one image of the nuclei (Hoechst), then recorded 10 seconds of spontaneous activity (Fluo-4NW) at 30 fps from each well.

[2] = Plasma stability (incubation in mouse plasma, LC/MS/MS); type: in vitro ADME; settings: for Plasma Stability, Time 0 min / Plasma Stability, Time 30 min / Plasma Stability, Time 60 min / Plasma Stability, Time 240 min: 37° C., 20 μM, parent remaining vs 0-min control
Method: The assay was carried out in 96-well microtiter plates. Compounds were incubated at 37° C. in the presence of the plasma. Reaction mixtures (50 μL) contained a final concentration of 20 μM test compound. The extent of metabolism was calculated as the disappearance of the test compound, compared to the 0-min control reaction incubations. Eucatropine was included as a positive control to verify assay performance.
At each of the time points, 500 μL of quench solution (100% acetonitrile with 0.1% formic acid) with internal standard was transferred to each well. Plates were sealed, vortexed, and centrifuged at 4° C. for 15 minutes at 4000 rpm. The supernatant was transferred to fresh plates for LC/MS/MS analysis.
All samples were analyzed on LC/MS/MS using an AB Sciex API 4000 instrument, coupled to a Shimadzu LC-20AD LC Pump system. Analytical samples were separated using a Waters Atlantis T3 dC18 reverse phase HPLC column (10 mm×2.1 mm) at a flow rate of 0.5 mL/min. The mobile phase consisted of 0.1% formic acid in water (solvent A) and 0.1% formic acid in 100% acetonitrile (solvent B). Elution conditions are detailed in the table below.

[3] = tested on: human Duchenne muscular dystrophy (hDMD) myoblast cells; assay: Calcium release, SR calcium leak and SOCE in Fluo-4/AM-loaded hDMD myoblasts (CPA protocol); type: cell-based; settings: 30 uM; for Integrated CPA-Induced CaT (area under the curve) (% Reduction in Peak A): CPA in Ca2+-free solution; for % Reduction in Peak CaT after return to 2 mM Ca^2+ (% Reduction in Peak E): SOCE-induced calcium transit
Method: Parameters measured are A, the peak CPA-induced calcium transit (F/F0); B, the maximum rate of rise of CPA-induced calcium transit (+ΔF/s); C, the maximum rate of decline of CPA-induced calcium transit (−ΔF/s); D, the integrated CPA-induced calcium transit (F.s); and E, the SOCE-induced calcium transit (F/F0).
Cell Preparation: De-identified telomerized human Duchenne muscular dystrophy (hDMD) myoblast cells were grown under standard cell culture conditions in 35 mm glass bottom petri dishes (MatTek, Ashland, Mass.) specially designed for perfusion and imaging.
Uncoated coverslips were coated with gelatin and hDMD cells seeded at ˜40-60% confluency 24 hours prior to fluorescence experiments.
Step 1. Cell Loading with the Fluorescent Ca^2+ Indicator Fluo-4/AM (Cell Permeant Form): hDMD cells were loaded with 5 μM Fluo-4/AM (Thermo Fisher Scientific) for 45 min at room temperature in the same buffer used for experiments of which composition is described below. After the incubation, the cells are washed twice with the same buffer without the indicator. Fluorescence experiments were initiated after a 30 min incubation in indicator-free buffer to allow for de-esterification of the dye and conversion to its acid active form by endogenous esterases.
Step 2. Fluo-4 Fluorescence Detection: A 35 mm petri dish containing Fluo-4-loaded myoblasts was set on the stage of an inverted Nikon Diaphot 300 epifluorescence microscope equipped with a dual PMT ratiometric fluorimeter system (Model SFX-2, Solamere Technology Group, Salt Lake City, Utah) and optical switch (Model DX-1000, Salt Lake City, Utah), a B/W camera and monitor, a PC computer running on Windows 7 Pro operating system and A/D-D/A data acquisition hardware (Axon Instruments Inc., Digidata 1440 interface) and software (Axon Instruments Inc., Axoscope v. 9.2). During a typical experiment, ca. one third to one half of a cell (field of view narrowed by a manually-controlled diaphragm) is visualized on the B/W TV monitor with an oil immersion 40× Fluor objective (NA=1.3) and defines the area from which epifluorescence intensity will be measured by one of the two PMTs (non-ratiometric measurements). For all experiments, the cells are excited by visible light produced by a 100 W mercury arc lamp centered at 488 nm. Emitted fluorescence at 520 nm is transmitted to the lateral port of the microscope by means of dichroic mirrors and a specific barrier filter located in one of three microscope filter cubes. Before each day of experiments, background fluorescence is cancelled by measuring emitted fluorescence in an unloaded cell. For all cells loaded with Fluo-4/AM, relative fluorescence intensity at 520 nm (filtered at 5 Hz) is normalized to Fluo-4 fluorescence intensity measured in Ca^2+-free medium (F/F0) prior to the addition of 10 μM cyclopiazonic acid (CPA; see protocol description below) to monitor Ca^2+ leakage from the sarcoplasmic reticulum (SR). Free intracellular Ca^2+ concentration is continuously monitored (>20 min; acquisition rate=200 Hz) with no evidence of photobleaching due to low level of excitation light intensity used and sensitivity of the Hamamatsu PMT set to high power.
After mounting the petri dish containing Fluo-4-loaded cells on the microscope stage, cell perfusion with normal physiological salt solutions (PSS) containing 2 mM Ca^2+ was initiated. A myoblast cell was then chosen under normal illumination. Fluo-4 fluorescence intensity recording was then initiated for 2 to 3 minutes to assess the level of loading and stability of the measurement. Once these conditions were met, the solution was switched to Ca^2+-free PSS for 5 min, and then switched for another 5 min to Ca^2+-free PSS containing only vehicle (Control; maximal concentration of 0.1% dimethyl sulfoxide) or vehicle plus drug to be tested (Test). […]

mdx mice [4] = assay: In vitro force measurement of diaphragm muscle of treated mdx mice; type: in vivo, mouse; settings: ca. 60 mg/kg in diet, four weeks of daily treatment (FIG. 8)
Method: (§1) mdx C57BL/10 mice (15 mice per group) (Jackson Laboratory; mdx mice stock number 001801; C57BL/10 stock number 000476) were treated with Example 20 formulated in food (347 mg of Example 20 blended into 1 kg of Purina LabDiet Rodent 5001). Based on calculated food consumption, the dose of Example 20 was estimated to be 60 mg/Kg, administered daily in diet for 4 weeks.
Mice were delivered at 4 weeks of age, and acclimatized for an additional seven days prior to initiation of the study. All animals were weighed, and grouped into different treatment groups based on body weight. Each group received an appropriate daily dosage of Example 20 or vehicle. Age and sex-matched C57BL/10 (vehicle) were used as controls. Exposure levels of Example 1 (the metabolism product of Example 20) in mouse plasma was measured in a separate 5-day pharmacokinetic study in mdx mice prior to the initiation of the 4-week study. Plasma samples were also taken at the termination of the 4-week study for pharmacokinetic assessment in which exposure leves of Example 1 were again measured (the results are set out below). The functional measurements (grip strength measurement and exhaustion assay) were performed after treatment. At the end of the trial, the extensor digitorum longus muscle (EDL) and diaphragm in vitro force measurements were taken, and dissection of the mice was performed to collect tissues. […]

mdx mice [5] = assay: Histology (H&E): muscle regeneration and markers of inflammation in treated mdx mice; type: in vivo, mouse; settings: 4-weeks treatment
Method: as §1
Mice were delivered at 4 weeks of age, and acclimatized for an additional seven days prior to initiation of the study. All animals were weighed, and grouped into different treatment groups based on body weight. Each group received an appropriate daily dosage of Example 20 or vehicle. Age and sex-matched C57BL/10 (vehicle) were used as controls. Exposure levels of Example 1 (the metabolism product of Example 20) in mouse plasma was measured in a separate 5-day pharmacokinetic study in mdx mice prior to the initiation of the 4-week study. Plasma samples were also taken at the termination of the 4-week study for pharmacokinetic assessment in which exposure leves of Example 1 were again measured (the results are set out below). The functional measurements (grip strength measurement and exhaustion assay) were performed after treatment. At the end of the trial, the extensor digitorum longus muscle (EDL) and diaphragm in vitro force measurements were taken, and dissection of the mice was performed to collect tissues. Histology evaluation (H&E) was performed on the frozen sections of the diaphragm and gastrocnemius muscles for each group.
Diaphragm and gastrocnemius muscles of untreated and drug-treated mice were isolated and included in Killik frozen section medium, frozen and cut into 8-μm thick sections with the muscle fibers oriented transversely using a cryostat. Sections were stained with Hematoxylin & Eosin to evaluate markers of inflammation, muscle degeneration and regeneration and percentage central nuclei according to Grounds (TREAT NMD SOP protocol DMD_M.1.2.007, Quantification of histopathology in Haemotoxylin and Eosin stained muscle sections).

Plasma Stability, Time 0 min [2] [%]	Plasma Stability, Time 60 min [2] [%]	Plasma Stability, Time 240 min [2] [%]	Structure (SMILES)	Integrated CPA-Induced CaT (area under the curve) (% Reduction in Peak A) [3] [%]	% Reduction in Peak CaT after return to 2 mM Ca^2+ (% Reduction in Peak E) [3] [%]	other results
–	–	–	COC(=O)C1=C(C)NC(C)=C([N+](=O)[O-])C1c1ccccc1C(F)(F)F (stereo not shown) [Bay K8644, reference compound]	–	–	CTD75 relative to vehicle control ([1]; reference compounds at 1 uM, under each experimental condition, 0.1% DMSO vehicle): ≥ 125 % of vehicle control
100.0	67.4	41.0	CC1CC(OC(=O)C(O)c2ccccc2)CC(C)(C)N1C (stereo not shown) [Eucatropine, reference compound]	–	–	Plasma Stability, Time 30 min [2]: 90.0%
100.0	99.8	102.1	[2H]C(c1ccc(C(=O)O)cc1)N1CCSc2ccc(OC)cc2C1([2H])[2H] (stereo not shown) [Example 1, 4-((5,5-Dideutero-7-methoxy-2,3-dihydrobenzo[f][1,4]thiazepin-4(5H)-yl)deuteromethyl)benzoic acid]	–	–	plasma stability after 2-hours of incubation in plasma ([2]; 2-hours of incubation): unchanged; Plasma Stability, Time 30 min [2]: 111.2%
–	–	–	COc1cc2c(cn1)SCCN(Cc1ccc(C(=O)O)cc1)C2 [Example 2, 4-((7-Methoxy-2,3-dihydropyrido[4,3-f][1,4]thiazepin-4(5H)-yl)methyl)benzoic acid]	43.3	41.4	CTD75 shortened to % of control ([1]; 10 uM, 30 uM (FIG. 5)): 79 % of control; triangulation T75-25 reduced to % of control ([1]; 10 uM, 30 uM (FIG. 5)): 71 % of control; effect on proarrhythmia and calcium transient ([1]; 10 uM, 30 uM, spontaneously beating cells in 4 mM calcium Tyrode's solution (FIG. 4)): dose-related reduction of proarrhythmia and calcium transient shortening
–	–	–	COc1ccc2c(n1)CN(Cc1ccc(C(=O)O)cc1)CCS2 [Example 9, 4-((7-Methoxy-2,3-dihydropyrido[2,3-f][1,4]thiazepin-4(5H)-yl)methyl)benzoic acid]	19.4	40.7	–
–	–	–	COc1cnc2c(c1)CN(Cc1ccc(C(=O)O)cc1)CCS2 [Example 13, 4-((7-Methoxy-2,3-dihydropyrido[3,2-f][1,4]thiazepin-4(5H)-yl)methyl)benzoic acid]	25.9	80.8	–
–	–	–	COc1ncc2c(n1)CN(Cc1ccc(C(=O)O)cc1)CCS2 [Example 17, 4-((2-Methoxy-6,7-dihydropyrimido[4,5-f][1,4]thiazepin-8(9H)-yl)methyl)benzoic acid]	23.0	21	–
100.0	0.6	0.3	[2H]C(c1ccc(C(=O)OCCCCO[N+](=O)[O-])cc1)N1CCSc2ccc(OC)cc2C1([2H])[2H] (stereo not shown) [Example 20]	–	–	maximal force in the diaphragm (mdx mice [4]): significant improvement; specific force in the diaphragm (mdx mice [4]): significant improvement; increase in regenerating fibers/mm^2 in the diaphragm (mdx mice [5]): > 25%; increase in regenerating fibers/mm^2 in the gastrocnemius muscle (mdx mice [5]): > 50%; reduction in inflammatory foci/mm^2 in the gastrocnemius muscle (mdx mice [5]): > 30%
–	–	–	COc1ccc2c(c1)CN(C)CCS2 [Example S107, reference compound]	74.1	52.8	–
